Where a SMILES comes first, the peptide text is derived from it. [ ]: non-standard residue; d: D form. Cit = NC(=O)NCCC[C@H](N)C(=O)O
The compounds below were run against HLA-A*02:01 (Homo sapiens, UniProt P04439, D140Y/D185E/D98H/E176V/E277Q/G131W/G231S/I119V/I121R/I166T/I218V/L300P/L318F/N151K/N90K/P208A/P217A/Q86G/Q94H/R138H/R169H/T345S) (assay: HLA-peptide competition binding assay, A*02:01). Conditions: not given.

Compound	IC50
CC(C)C[C@H](NC(=O)[C@H](C)N)C(=O)N[C@@H](Cc1ccc(O)cc1)C(=O)N[C@@H](CC(C)C)C(=O)N[C@H](C(=O)N[C@@H](CS)C(=O)NCC(=O)N[C@@H](CCC(=O)O)C(=O)N[C@@H](CCCNC(N)=O)C(=O)O)C(C)C	1240 nM
C[C@@H](O)[C@H](NC(=O)[C@H](CCCCN)NC(=O)[C@@H]1CCCN1C(=O)[C@@H](NC(=O)[C@H](Cc1ccc(O)cc1)NC(=O)[C@H](Cc1ccccc1)NC(=O)[C@H](Cc1ccccc1)NC(=O)CN)[C@@H](C)O)C(=O)N[C@@H](CCCNC(N)=O)C(=O)O	38400 nM
C[C@@H](O)[C@H](NC(=O)[C@H](CCCCN)NC(=O)[C@@H]1CCCN1C(=O)[C@@H](NC(=O)[C@H](Cc1ccc(O)cc1)NC(=O)[C@H](Cc1ccccc1)NC(=O)[C@H](Cc1ccccc1)NC(=O)CNC(=O)[C@@H](N)CCCNC(N)=O)[C@@H](C)O)C(=O)O	27300 nM
CC(C)C[C@H](NC(=O)[C@H](C)NC(=O)[C@@H](N)CCC(=O)O)C(=O)N[C@@H](Cc1ccc(O)cc1)C(=O)N[C@@H](CC(C)C)C(=O)N[C@H](C(=O)N[C@@H](CS)C(=O)NCC(=O)N[C@@H](CCC(=O)O)C(=O)N[C@@H](CCCNC(N)=O)C(=O)O)C(C)C (H-EALYLVCGE[Cit]-OH)	3100 nM

Same assay, conditions: post-translationally modified insulin peptide; competition binding assay; a dash indicates IC50 >40,000 nM; read-out: A*02:01 binding (IC50 nM) Modified

Compound	IC50
C[C@@H](O)[C@H](NC(=O)[C@H](Cc1ccc(O)cc1)NC(=O)[C@H](Cc1ccccc1)NC(=O)[C@H](Cc1ccccc1)NC(=O)CNC(=O)[C@H](CCCNC(N)=O)NC(=O)[C@H](CCC(=O)O)NC(=O)CNC(=O)[C@@H](N)CS)C(=O)O (H-CGE[Cit]GFFYT-OH; N-terminus and C-terminus assumed)	> 40000 nM
C[C@@H](O)[C@H](NC(=O)[C@H](Cc1ccc(O)cc1)NC(=O)[C@H](Cc1ccccc1)NC(=O)[C@H](Cc1ccccc1)NC(=O)CNC(=O)[C@H](CCCNC(N)=O)NC(=O)[C@H](CCC(=O)O)NC(=O)CNC(=O)[C@@H](N)CS)C(=O)N1CCC[C@H]1C(=O)O (H-CGE[Cit]GFFYTP-OH; N-terminus and C-terminus assumed)	> 40000 nM
C[C@@H](O)[C@H](NC(=O)[C@H](CCCCN)NC(=O)[C@@H]1CCCN1C(=O)[C@@H](NC(=O)[C@H](Cc1ccc(O)cc1)NC(=O)[C@H](Cc1ccccc1)NC(=O)[C@@H](N)Cc1ccccc1)[C@@H](C)O)C(=O)N[C@@H](CCCNC(N)=O)C(=O)N[C@@H](CCCNC(N)=O)C(=O)O (H-FFYTPKT[Cit][Cit]-OH; N-terminus and C-terminus assumed)	> 40000 nM
C[C@@H](O)[C@H](NC(=O)[C@H](Cc1ccc(O)cc1)NC(=O)[C@H](Cc1ccccc1)NC(=O)[C@H](Cc1ccccc1)NC(=O)CNC(=O)[C@H](CCCNC(N)=O)NC(=O)[C@H](CCC(=O)O)NC(=O)CN)C(=O)N1CCC[C@H]1C(=O)O (H-GE[Cit]GFFYTP-OH; N-terminus and C-terminus assumed)	> 40000 nM

Further lines, results first:

IC50	Compound
> 40000 nM	CC(C)C[C@H](NC(=O)[C@H](C)N)C(=O)N[C@@H](CCC(=O)O)C(=O)NCC(=O)N[C@@H](CO)C(=O)N[C@@H](CC(C)C)C(=O)N[C@@H](CCC(N)=O)C(=O)N[C@@H](CCCCN)C(=O)N[C@@H](CCCNC(N)=O)C(=O)O (H-ALEGSLQK[Cit]-OH; N-terminus and C-terminus assumed)
> 40000 nM	CC(C)C[C@H](NC(=O)[C@H](C)N)C(=O)N[C@@H](CCC(=O)O)C(=O)NCC(=O)N[C@@H](CO)C(=O)N[C@@H](CC(C)C)C(=O)N[C@@H](CCC(N)=O)C(=O)N[C@@H](CCCCN)C(=O)N[C@@H](CCCNC(N)=O)C(=O)NCC(=O)O (H-ALEGSLQK[Cit]G-OH; N-terminus and C-terminus assumed)
> 40000 nM	CC[C@H](C)[C@H](NC(=O)CNC(=O)[C@H](CCCNC(N)=O)NC(=O)[C@H](CCCCN)NC(=O)[C@H](CCC(N)=O)NC(=O)[C@H](CC(C)C)NC(=O)[C@H](CO)NC(=O)CNC(=O)[C@@H](N)CCC(=O)O)C(=O)O (H-EGSLQK[Cit]GI-OH; N-terminus and C-terminus assumed)
> 40000 nM	CC[C@H](C)[C@H](NC(=O)CNC(=O)[C@H](CCCNC(N)=O)NC(=O)[C@H](CCCCN)NC(=O)[C@H](CCC(N)=O)NC(=O)[C@H](CC(C)C)NC(=O)[C@H](CO)NC(=O)CNC(=O)[C@@H](N)CCC(=O)O)C(=O)N[C@H](C(=O)O)C(C)C (H-EGSLQK[Cit]GIV-OH; N-terminus and C-terminus assumed)
> 40000 nM	C[C@@H](O)[C@H](NC(=O)[C@H](CCCCN)NC(=O)[C@@H]1CCCN1C(=O)[C@@H](NC(=O)[C@H](Cc1ccc(O)cc1)NC(=O)[C@@H](N)Cc1ccccc1)[C@@H](C)O)C(=O)N[C@@H](CCCNC(N)=O)C(=O)N[C@@H](CCCNC(N)=O)C(=O)N[C@@H](CCC(=O)O)C(=O)O (H-FYTPKT[Cit][Cit]E-OH; N-terminus and C-terminus assumed)
> 40000 nM	C[C@H](NC(=O)[C@H](CCC(=O)O)NC(=O)[C@H](CCCNC(N)=O)NC(=O)[C@H](CCCNC(N)=O)NC(=O)[C@@H](NC(=O)[C@H](CCCCN)NC(=O)[C@@H]1CCCN1C(=O)[C@@H](NC(=O)[C@H](Cc1ccc(O)cc1)NC(=O)[C@@H](N)Cc1ccccc1)[C@@H](C)O)[C@@H](C)O)C(=O)O (H-FYTPKT[Cit][Cit]EA-OH; N-terminus and C-terminus assumed)
> 40000 nM	CC[C@H](C)[C@H](NC(=O)CNC(=O)[C@H](CCCNC(N)=O)NC(=O)[C@H](CCCCN)NC(=O)[C@H](CCC(N)=O)NC(=O)[C@H](CC(C)C)NC(=O)[C@H](CO)NC(=O)CN)C(=O)N[C@H](C(=O)O)C(C)C (H-GSLQK[Cit]GIV-OH; N-terminus and C-terminus assumed)

Same assay, conditions: post-translationally modified insulin-derived peptide; radiolabeled ligand competition, purified MHC, two-day incubation, three or more independent experiments; read-out: A*02:01 binding, Modified

Compound	IC50
CC(C)C[C@H](NC(=O)[C@H](Cc1ccc(O)cc1)NC(=O)[C@@H](N)CC(C)C)C(=O)N[C@H](C(=O)N[C@@H](CS)C(=O)NCC(=O)N[C@@H](CCC(=O)O)C(=O)N[C@@H](CCCNC(N)=O)C(=O)NCC(=O)O)C(C)C	12500 nM
CSCC[C@H](NC(=O)[C@H](Cc1c[nH]c2ccccc12)NC(=O)[C@H](CC(C)C)NC(=O)[C@H](C)N)C(=O)N[C@@H](CCCNC(N)=O)C(=O)N[C@@H](CC(C)C)C(=O)N[C@@H](CC(C)C)C(=O)N1CCC[C@H]1C(=O)N[C@@H](CC(C)C)C(=O)O (H-ALWM[Cit]LLPL-OH)	28 nM
CSCC[C@H](NC(=O)[C@H](Cc1c[nH]c2ccccc12)NC(=O)[C@H](CC(C)C)NC(=O)[C@H](C)N)C(=O)N[C@@H](CCCNC(N)=O)C(=O)N[C@@H](CC(C)C)C(=O)N[C@@H](CC(C)C)C(=O)N1CCC[C@H]1C(=O)N[C@@H](CC(C)C)C(=O)N[C@@H](CC(C)C)C(=O)O (H-ALWM[Cit]LLPLL-OH)	69 nM

Same assay, conditions: read-out: A*02:01 binding (IC50 nM) Modified

Compound	IC50
C[C@@H](O)[C@H](NC(=O)[C@H](Cc1ccc(O)cc1)NC(=O)[C@H](Cc1ccccc1)NC(=O)[C@H](Cc1ccccc1)NC(=O)CNC(=O)[C@H](CCCNC(N)=O)NC(=O)[C@@H](N)CCC(=O)O)C(=O)N1CCC[C@H]1C(=O)N[C@@H](CCCCN)C(=O)O (H-E[Cit]GFFYTPK-OH)	38100 nM
C[C@@H](O)[C@H](NC(=O)[C@H](CCCCN)NC(=O)[C@@H]1CCCN1C(=O)[C@@H](NC(=O)[C@H](Cc1ccc(O)cc1)NC(=O)[C@H](Cc1ccccc1)NC(=O)[C@@H](N)Cc1ccccc1)[C@@H](C)O)C(=O)N[C@@H](CCCNC(N)=O)C(=O)N[C@@H](CCCNC(N)=O)C(=O)N[C@@H](CCC(=O)O)C(=O)O (H-FFYTPKT[Cit][Cit]E-OH)	28300 nM

Same assay, conditions: read-out: A*02:01 binding (IC50 nM) WT

Compound	IC50
C[C@@H](O)[C@H](NC(=O)[C@H](CCCCN)NC(=O)[C@@H]1CCCN1C(=O)[C@@H](NC(=O)[C@H](Cc1ccc(O)cc1)NC(=O)[C@H](Cc1ccccc1)NC(=O)[C@H](Cc1ccccc1)NC(=O)CN)[C@@H](C)O)C(=O)N[C@@H](CCCNC(=N)N)C(=O)O	12200 nM

Same assay, conditions: unmodified (WT) insulin peptide; competition binding assay; a dash indicates IC50 >40,000 nM; read-out: A*02:01 binding (IC50 nM) WT

Compound	IC50
C[C@@H](O)[C@H](NC(=O)[C@H](CCCCN)NC(=O)[C@@H]1CCCN1C(=O)[C@@H](NC(=O)[C@H](Cc1ccc(O)cc1)NC(=O)[C@H](Cc1ccccc1)NC(=O)[C@H](Cc1ccccc1)NC(=O)CNC(=O)[C@H](CCCNC(=N)N)NC(=O)[C@@H](N)CCC(=O)O)[C@@H](C)O)C(=O)O	> 40000 nM
C[C@@H](O)[C@H](NC(=O)[C@H](Cc1ccc(O)cc1)NC(=O)[C@H](Cc1ccccc1)NC(=O)[C@H](Cc1ccccc1)NC(=O)CNC(=O)[C@H](CCCNC(=N)N)NC(=O)[C@H](CCC(=O)O)NC(=O)CN)C(=O)N1CCC[C@H]1C(=O)N[C@@H](CCCCN)C(=O)O	> 40000 nM
C[C@@H](O)[C@H](NC(=O)[C@H](CCCCN)NC(=O)[C@@H]1CCCN1C(=O)[C@@H](NC(=O)[C@H](Cc1ccc(O)cc1)NC(=O)[C@H](Cc1ccccc1)NC(=O)[C@H](Cc1ccccc1)NC(=O)CN)[C@@H](C)O)C(=O)N[C@@H](CCCNC(=N)N)C(=O)N[C@@H](CCCNC(=N)N)C(=O)O	> 40000 nM
C[C@@H](O)[C@H](NC(=O)[C@H](CCCCN)NC(=O)[C@@H]1CCCN1C(=O)[C@@H](NC(=O)[C@H](Cc1ccc(O)cc1)NC(=O)[C@H](Cc1ccccc1)NC(=O)[C@H](Cc1ccccc1)NC(=O)CNC(=O)[C@@H](N)CCCNC(=N)N)[C@@H](C)O)C(=O)O	> 40000 nM
C[C@@H](O)[C@H](NC(=O)[C@H](CCCCN)NC(=O)[C@@H]1CCCN1C(=O)[C@@H](NC(=O)[C@H](Cc1ccc(O)cc1)NC(=O)[C@H](Cc1ccccc1)NC(=O)[C@H](Cc1ccccc1)NC(=O)CNC(=O)[C@@H](N)CCCNC(=N)N)[C@@H](C)O)C(=O)N[C@@H](CCCNC(=N)N)C(=O)O	> 40000 nM

Same assay, conditions: unmodified (wild type) insulin-derived peptide; radiolabeled ligand competition, purified MHC, two-day incubation, three or more independent experiments; read-out: A*02:01 binding, WT

Compound	IC50
CC(C)C[C@H](NC(=O)[C@H](C)N)C(=O)N[C@@H](Cc1ccc(O)cc1)C(=O)N[C@@H](CC(C)C)C(=O)N[C@H](C(=O)N[C@@H](CS)C(=O)NCC(=O)N[C@@H](CCC(=O)O)C(=O)N[C@@H](CCCNC(=N)N)C(=O)NCC(=O)O)C(C)C	8780 nM
C[C@@H](O)[C@H](NC(=O)[C@H](CCCCN)NC(=O)[C@@H]1CCCN1C(=O)[C@@H](NC(=O)[C@H](Cc1ccc(O)cc1)NC(=O)[C@H](Cc1ccccc1)NC(=O)[C@H](Cc1ccccc1)NC(=O)CNC(=O)[C@H](CCCNC(=N)N)NC(=O)[C@@H](N)CCC(=O)O)[C@@H](C)O)C(=O)O	> 40000 nM
C[C@@H](O)[C@H](NC(=O)[C@H](CCCCN)NC(=O)[C@@H]1CCCN1C(=O)[C@@H](NC(=O)[C@H](Cc1ccc(O)cc1)NC(=O)[C@H](Cc1ccccc1)NC(=O)[C@H](Cc1ccccc1)NC(=O)CNC(=O)[C@@H](N)CCCNC(=N)N)[C@@H](C)O)C(=O)O	> 40000 nM
